The record followed here is PMC7206119, “RIP1 inhibition blocks inflammatory diseases but not tumor growth or metastases” (Cell Death and Differentiation, 2019).

Each structure is given as a SMILES string.

Holding throughout (experiment): biochemical
What all share (design): DiscoverX kinase panel, active-site competition binding (KINOMEscan type), percent of control at one concentration
Details in all cases: competition binding, percent of control

Test [1] has as its target TNIK (Homo sapiens, UniProt Q9UKE5).
The target of test [2] is CAMK1G (Homo sapiens, UniProt Q96NX5).
Sequence of CAMK1G (Q96NX5 whole entry): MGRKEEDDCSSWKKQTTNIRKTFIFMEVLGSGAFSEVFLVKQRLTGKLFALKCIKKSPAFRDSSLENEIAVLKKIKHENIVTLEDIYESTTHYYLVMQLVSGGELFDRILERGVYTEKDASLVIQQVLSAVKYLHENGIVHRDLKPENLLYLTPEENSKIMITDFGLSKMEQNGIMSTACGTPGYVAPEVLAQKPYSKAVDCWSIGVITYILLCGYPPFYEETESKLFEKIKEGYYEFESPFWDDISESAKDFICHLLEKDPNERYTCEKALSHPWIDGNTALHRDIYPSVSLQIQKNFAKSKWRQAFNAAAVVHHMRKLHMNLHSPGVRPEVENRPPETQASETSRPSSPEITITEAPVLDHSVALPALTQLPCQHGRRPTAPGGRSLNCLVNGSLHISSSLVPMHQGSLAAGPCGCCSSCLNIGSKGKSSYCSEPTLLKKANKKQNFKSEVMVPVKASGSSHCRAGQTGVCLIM
Test [3] addresses T1, YES (Homo sapiens, UniProt P07947).
T1 construct: gene YES1

Test [4] has as its target TNK2 (Homo sapiens, UniProt Q07912).
Test [5] has as its target T2, YSK1 (Homo sapiens, UniProt O00506).
T2 construct: gene STK25

The target of test [6] is ULK1 (Homo sapiens, UniProt O75385).
Sequence of ULK1 (O75385 whole entry): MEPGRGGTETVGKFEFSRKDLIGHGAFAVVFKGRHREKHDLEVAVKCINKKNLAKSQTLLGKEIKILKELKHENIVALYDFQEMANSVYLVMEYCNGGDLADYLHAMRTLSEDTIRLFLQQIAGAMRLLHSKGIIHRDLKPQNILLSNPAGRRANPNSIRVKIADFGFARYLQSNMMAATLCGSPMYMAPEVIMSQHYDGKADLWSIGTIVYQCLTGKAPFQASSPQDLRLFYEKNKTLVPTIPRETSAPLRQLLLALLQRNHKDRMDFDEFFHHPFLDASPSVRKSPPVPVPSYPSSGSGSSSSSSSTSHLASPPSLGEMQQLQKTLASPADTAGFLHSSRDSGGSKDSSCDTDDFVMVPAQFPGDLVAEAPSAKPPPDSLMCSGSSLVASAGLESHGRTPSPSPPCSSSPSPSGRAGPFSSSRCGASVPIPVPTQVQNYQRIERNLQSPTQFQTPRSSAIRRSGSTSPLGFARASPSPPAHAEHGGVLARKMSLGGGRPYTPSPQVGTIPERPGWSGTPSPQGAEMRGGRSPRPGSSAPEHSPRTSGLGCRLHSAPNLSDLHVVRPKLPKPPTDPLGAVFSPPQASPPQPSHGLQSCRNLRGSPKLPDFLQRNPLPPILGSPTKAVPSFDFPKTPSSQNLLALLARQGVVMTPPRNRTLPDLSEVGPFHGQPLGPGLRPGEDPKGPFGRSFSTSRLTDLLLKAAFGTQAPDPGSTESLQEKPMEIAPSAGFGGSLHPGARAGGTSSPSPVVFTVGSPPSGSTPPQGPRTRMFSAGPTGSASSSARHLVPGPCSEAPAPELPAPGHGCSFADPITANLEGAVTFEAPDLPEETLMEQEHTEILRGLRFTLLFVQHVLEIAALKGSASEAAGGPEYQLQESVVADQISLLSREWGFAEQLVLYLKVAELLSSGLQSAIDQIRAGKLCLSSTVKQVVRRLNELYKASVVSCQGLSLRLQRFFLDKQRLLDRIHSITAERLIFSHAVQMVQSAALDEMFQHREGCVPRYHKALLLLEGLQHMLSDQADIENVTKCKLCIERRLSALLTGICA
Test [7] addresses T3, DCAMKL2 (Homo sapiens, UniProt Q8N568).
T3 construct: gene DCLK2

The target of test [8] is T4, ERK5 (Homo sapiens, UniProt Q13164).
T4 construct: gene MAPK7
T4 sequence (Q13164 whole entry): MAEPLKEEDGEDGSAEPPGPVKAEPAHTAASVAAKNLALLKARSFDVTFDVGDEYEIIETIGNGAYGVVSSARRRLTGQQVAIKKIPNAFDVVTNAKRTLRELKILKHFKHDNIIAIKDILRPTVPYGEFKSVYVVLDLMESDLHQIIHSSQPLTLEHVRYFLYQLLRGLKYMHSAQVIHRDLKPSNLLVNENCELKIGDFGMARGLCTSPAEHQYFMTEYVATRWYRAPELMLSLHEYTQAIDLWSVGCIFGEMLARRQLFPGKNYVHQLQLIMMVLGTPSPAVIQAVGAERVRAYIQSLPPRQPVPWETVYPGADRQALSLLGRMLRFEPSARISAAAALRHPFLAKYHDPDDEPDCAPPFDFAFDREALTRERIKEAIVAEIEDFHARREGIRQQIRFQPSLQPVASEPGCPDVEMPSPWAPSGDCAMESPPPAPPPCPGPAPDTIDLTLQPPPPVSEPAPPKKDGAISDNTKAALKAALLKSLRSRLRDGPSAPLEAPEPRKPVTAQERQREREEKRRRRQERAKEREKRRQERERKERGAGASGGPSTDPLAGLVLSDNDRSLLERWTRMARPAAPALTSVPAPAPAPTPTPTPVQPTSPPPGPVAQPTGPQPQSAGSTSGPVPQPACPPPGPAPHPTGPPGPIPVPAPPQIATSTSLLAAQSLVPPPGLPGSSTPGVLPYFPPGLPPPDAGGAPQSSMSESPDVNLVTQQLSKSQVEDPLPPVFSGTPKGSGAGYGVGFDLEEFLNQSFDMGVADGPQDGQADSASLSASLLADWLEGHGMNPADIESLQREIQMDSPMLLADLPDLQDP

The target in test [9] is BMX (Homo sapiens, UniProt P51813).
The target of test [10] is T5, MEK1 (Homo sapiens, UniProt Q02750).
T5 construct: gene MAP2K1
T5 sequence (Q02750 whole entry): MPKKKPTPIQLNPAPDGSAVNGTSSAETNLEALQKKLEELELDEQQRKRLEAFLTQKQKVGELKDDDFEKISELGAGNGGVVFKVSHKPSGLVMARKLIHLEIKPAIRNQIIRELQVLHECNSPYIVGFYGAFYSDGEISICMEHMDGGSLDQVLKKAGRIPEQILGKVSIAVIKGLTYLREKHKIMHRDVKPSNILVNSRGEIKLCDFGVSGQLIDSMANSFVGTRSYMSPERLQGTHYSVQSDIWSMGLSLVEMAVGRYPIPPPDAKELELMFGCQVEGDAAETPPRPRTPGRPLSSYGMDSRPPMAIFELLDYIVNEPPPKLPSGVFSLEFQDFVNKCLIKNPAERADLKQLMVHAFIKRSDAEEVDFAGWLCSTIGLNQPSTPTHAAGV

Test [11] addresses CASK (Homo sapiens, UniProt O14936).
The target in test [12] is T6, MLK1 (Homo sapiens, UniProt P80192).
T6 construct: gene MAP3K9

Test [13] concerns the target HIPK2 (Homo sapiens, UniProt Q9H2X6).
Test [14] concerns the target DYRK1A (Homo sapiens, UniProt Q13627).
Test [15] has as its target T7, ABL1(T315I)-nonphosphorylated (Homo sapiens, UniProt P00519, T315I).
T7 construct: nonphosphorylated

Test [16] deals with GRK4 (Homo sapiens, UniProt P32298).
Test [17] deals with PRKG2 (Homo sapiens, UniProt Q13237).
The target of test [18] is LATS1 (Homo sapiens, UniProt O95835).
Sequence of LATS1 (O95835 whole entry): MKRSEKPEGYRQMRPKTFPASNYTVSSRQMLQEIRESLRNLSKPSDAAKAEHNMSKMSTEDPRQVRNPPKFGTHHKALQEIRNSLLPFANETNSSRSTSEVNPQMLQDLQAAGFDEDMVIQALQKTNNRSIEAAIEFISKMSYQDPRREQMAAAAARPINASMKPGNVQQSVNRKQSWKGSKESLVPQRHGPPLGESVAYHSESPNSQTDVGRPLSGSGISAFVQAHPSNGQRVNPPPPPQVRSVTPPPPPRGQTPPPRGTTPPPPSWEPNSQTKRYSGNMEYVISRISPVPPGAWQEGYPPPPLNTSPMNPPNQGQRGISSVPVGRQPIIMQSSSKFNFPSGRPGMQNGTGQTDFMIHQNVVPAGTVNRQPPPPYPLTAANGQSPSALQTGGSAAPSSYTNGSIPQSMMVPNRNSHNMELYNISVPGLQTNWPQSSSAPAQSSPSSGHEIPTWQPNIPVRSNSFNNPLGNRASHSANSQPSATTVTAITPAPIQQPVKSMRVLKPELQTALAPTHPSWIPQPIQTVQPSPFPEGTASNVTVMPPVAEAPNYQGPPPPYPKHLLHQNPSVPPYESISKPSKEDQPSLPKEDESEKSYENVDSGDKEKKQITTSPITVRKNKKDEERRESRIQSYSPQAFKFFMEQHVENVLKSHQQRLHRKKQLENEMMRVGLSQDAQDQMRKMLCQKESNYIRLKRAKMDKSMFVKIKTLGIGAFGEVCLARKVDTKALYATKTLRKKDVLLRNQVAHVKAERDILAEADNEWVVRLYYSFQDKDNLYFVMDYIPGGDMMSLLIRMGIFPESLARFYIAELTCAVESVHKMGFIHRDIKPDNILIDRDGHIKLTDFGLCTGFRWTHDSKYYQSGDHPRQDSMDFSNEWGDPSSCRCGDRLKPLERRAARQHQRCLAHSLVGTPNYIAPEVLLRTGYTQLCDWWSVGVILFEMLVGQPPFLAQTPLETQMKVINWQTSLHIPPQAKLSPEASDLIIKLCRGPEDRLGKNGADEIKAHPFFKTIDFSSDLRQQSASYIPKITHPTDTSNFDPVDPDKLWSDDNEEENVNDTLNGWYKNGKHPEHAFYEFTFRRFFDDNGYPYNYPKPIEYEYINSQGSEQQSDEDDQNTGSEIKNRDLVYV
Test [19] has as its target T8, JAK2(JH1domain-catalytic) (Homo sapiens, UniProt O60674).
T8 construct: JH1domain-catalytic

Test [20] concerns the target T9, GCN2(Kin.Dom.2,S808G) (Homo sapiens, UniProt Q9P2K8, S808G).
T9 construct: gene EIF2AK4; Kin.Dom.2

The target in test [21] is GAK (Homo sapiens, UniProt O14976).

T8 sequence (O60674 whole entry): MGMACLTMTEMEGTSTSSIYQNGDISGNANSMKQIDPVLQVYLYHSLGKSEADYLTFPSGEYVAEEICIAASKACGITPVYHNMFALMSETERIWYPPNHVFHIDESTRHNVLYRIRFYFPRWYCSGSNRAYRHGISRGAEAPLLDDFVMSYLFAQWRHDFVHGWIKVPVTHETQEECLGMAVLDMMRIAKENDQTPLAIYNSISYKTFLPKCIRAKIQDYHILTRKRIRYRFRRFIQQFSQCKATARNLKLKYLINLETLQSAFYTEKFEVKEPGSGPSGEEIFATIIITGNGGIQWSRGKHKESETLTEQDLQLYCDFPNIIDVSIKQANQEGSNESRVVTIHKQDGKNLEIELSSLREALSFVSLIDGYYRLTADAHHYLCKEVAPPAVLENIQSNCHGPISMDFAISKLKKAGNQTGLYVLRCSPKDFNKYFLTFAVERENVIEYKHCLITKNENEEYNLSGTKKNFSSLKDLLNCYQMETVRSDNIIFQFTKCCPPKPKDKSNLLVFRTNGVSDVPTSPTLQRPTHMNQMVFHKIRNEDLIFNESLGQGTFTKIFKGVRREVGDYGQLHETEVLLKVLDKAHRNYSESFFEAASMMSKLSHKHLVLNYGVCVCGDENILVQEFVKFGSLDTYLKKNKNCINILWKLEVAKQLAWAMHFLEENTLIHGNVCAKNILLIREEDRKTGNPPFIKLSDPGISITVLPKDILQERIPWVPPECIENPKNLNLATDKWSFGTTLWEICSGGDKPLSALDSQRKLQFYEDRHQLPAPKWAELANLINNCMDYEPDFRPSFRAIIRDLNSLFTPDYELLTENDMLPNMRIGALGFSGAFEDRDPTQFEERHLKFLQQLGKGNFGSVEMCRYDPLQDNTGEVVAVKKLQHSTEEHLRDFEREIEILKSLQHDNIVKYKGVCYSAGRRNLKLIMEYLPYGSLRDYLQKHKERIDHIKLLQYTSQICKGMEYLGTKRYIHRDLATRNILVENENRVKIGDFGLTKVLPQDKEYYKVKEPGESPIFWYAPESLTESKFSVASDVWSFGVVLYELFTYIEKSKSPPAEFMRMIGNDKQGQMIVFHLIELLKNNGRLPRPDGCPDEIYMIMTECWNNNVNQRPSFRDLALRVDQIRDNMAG

Regarding `COc1cc2c(cn1)N(C)C(=O)[C@@H](NC(=O)c1nc3n(n1)[C@H](c1ccccc1)CC3)CC2` [GNE684, (S)-N-((S)-7-methoxy-1-methyl-2-oxo-2,3,4,5-tetrahydro-1H-pyrido[3,4-b]azepin-3-yl)-5-phenyl-6,7-dihydro-5H-pyrrolo[1,2-b][1,2,4]triazole-2-carboxamide], the remaining binding at 10 µM in test [1] stood at 67%; in test [2], 100%; in test [3], 95%; in test [4], 100%; in test [5], 90%; in [6], 98%. Moreover, the remaining binding at 10 µM in test [7] was found to be 95%; in [8], 85%; in test [9], 94%; in test [10], 91%; in test [11], 72%; in test [12] it was 99%. Also, the remaining binding at 10 µM stood at 82% in [13]; 79% in test [14]; 73% in test [15]; 100% in test [16]; 94% in test [17]; 89% in [18]. Besides, the remaining binding at 10 µM in test [19] amounted to 100%; in test [20], 100%; in test [21], 92%.
